According to PMC10461969 (bioRxiv, 2023):
Like-named read-outs stand apart in the source and are kept apart here.

Legend:
SIRT5 [1] = biological target: T1, SIRT5 (Homo sapiens, UniProt Q9NXA8); settings: read-out: IC50 Pub., Succinyl; cited from earlier work
T1 sequence (Q9NXA8 37-310): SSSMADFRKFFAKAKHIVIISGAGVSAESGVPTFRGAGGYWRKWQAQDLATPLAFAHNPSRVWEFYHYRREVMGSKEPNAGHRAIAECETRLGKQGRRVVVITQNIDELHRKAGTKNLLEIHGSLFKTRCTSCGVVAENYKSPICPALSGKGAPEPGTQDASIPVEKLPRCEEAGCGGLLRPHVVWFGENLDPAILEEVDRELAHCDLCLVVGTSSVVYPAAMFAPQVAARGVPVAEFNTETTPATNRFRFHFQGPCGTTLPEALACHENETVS

SIRT5 [2] = biological target: T1, SIRT5; experiment: SIRTify cell-free inhibitor assay, SIRT5; settings: for IC50: 250 μM NAD+
SIRT5 [3] = biological target: T1, SIRT5; experiment: SIRTify in live; assay type: cell-based; settings: intact HepG2-LgBiT cells with furimazine
SIRT5 [4] = biological target: T1, SIRT5; experiment: SIRTify in live; assay type: cell-based; settings: intact KG1a-LgBiT cells with furimazine
Sirt5 [5] = biological target: T2, Sirt5 (Danio rerio, UniProt Q6DHI5); experiment: Endogenous Sirt5 desuccinylation activity in zebrafish embryos; assay type: in vivo, zebrafish (Danio rerio); settings: embryos injected with LgBiT and peptide; endurazine
T2 sequence (Q6DHI5 33-305): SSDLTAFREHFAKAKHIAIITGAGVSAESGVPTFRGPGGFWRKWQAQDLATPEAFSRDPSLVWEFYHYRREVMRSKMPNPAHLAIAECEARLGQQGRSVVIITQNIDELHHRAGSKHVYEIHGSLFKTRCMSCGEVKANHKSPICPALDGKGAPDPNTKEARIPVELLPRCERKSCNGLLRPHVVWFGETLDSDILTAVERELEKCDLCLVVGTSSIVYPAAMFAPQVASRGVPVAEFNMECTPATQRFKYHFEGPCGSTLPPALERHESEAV

Molecule | IC50 (SIRT5 [1]) | lower IC50 for deglutarylase activity compared to desuccinylase activity (SIRT5 [2]) | IC50 (SIRT5 [2]; Glutaryl substrate (deglutarylase activity)) | IC50 (SIRT5 [2]; Succinyl substrate (desuccinylase activity)) | luminescence versus peptide concentration (cell permeability) (SIRT5 [3]) | luminescence versus peptide concentration (cell permeability) (SIRT5 [4]) | luminescence over 90 minutes (endogenous desuccinylation) (Sirt5 [5])
O=C(O)CCNC(=S)NCCCC[C@H](NS(=O)(=O)c1cccc(F)c1)C(=O)N[C@@H](Cc1c[nH]c2ccccc12)C(=O)NC1CCC1 | 110 nM | approximately 3 fold | 47 ± 2 nM | 102 ± 8 nM | – | – | –
CC[C@H](C)[C@H](NC(=O)[C@H](CCCCN)NC(=O)[C@H](CCCCN)NC(=O)[C@H](Cc1ccccc1)NC(=O)[C@H](CC(C)C)NC(=O)[C@H](CCCNC(=N)N)NC(=O)[C@H](Cc1c[nH]c2ccccc12)NC(=O)CNC(=O)[C@H](CO)NC(=O)[C@@H](N)C(C)C)C(=O)N[C@@H](CO)C(=O)N[C@@H](CCCNC(=N)N)C(=O)N[C@@H](CCCNC(=N)N)C(=O)N[C@@H](CCCNC(=N)N)C(=O)N[C@@H](CCCNC(=N)N)C(=O)O [p86-R4] | – | – | – | – | directly proportional to p86-R4 concentration | directly proportional to p86-R4 concentration | –
H2N-VSGWRLF(KGlut)(KGlut)ISRRRR-OH [p86-Glutaryl8,9-R4] | – | – | – | – | much lower signal | much lower signal | –
H2N-VSGWRLF(KSuc)(KSuc)ISRRRR-OH [p86-Succinyl8,9-R4] | – | – | – | – | much lower signal | much lower signal | slight increase in luminescence
